According to US10647679B2, “N-methyl-D-aspartate receptor (NMDAR) potentiators, pharmaceutical compositions, and uses related thereto” (Emory University, priority 2015, dated 2020):
Read-outs that look alike come from different tables or passages of the source.

Key:
Type in all cases: cell-based
[1] = target: T1, recombinant rat GluN1/GluN2C (Rattus norvegicus, UniProt P35439+Q00961); test: Two-electrode voltage-clamp (TEVC) recordings in Xenopus laevis oocytes, GluN1/GluN2C
T1 construct: expressed in transfected cells; host or cells: Xenopus laevis oocytes (Ecocyte) injected with in vitro transcribed cRNA
Protocol: (§1) Data are from between 3-26 oocytes from 2-5 frogs for each compound and receptor tested.
(§2) Two-electrode voltage-clamp recordings were performed in Xenopus laevis oocytes (Ecocyte) expressing recombinant rat GluN1/GluN2A, GluN1/GluN2B, GluN1/GluN2C, GluN1/GluN2D. cRNA was transcribed in vitro (Ambion), diluted with nuclease free water, and injected at a ratio of 1:2 GluN1:GluN2 (5-10 ng total cRNA). The oocytes were kept in Barth's solution comprised of (in mM) 88 NaCl, 5 Tris-HCl, 2.4 NaHCO3, 1 KCl, 0.84 MgSO4, 0.41 CaCl2, and 0.33 Ca(NO3)2 at pH 7.4 at 15-17° C. for two to five days before experiments. Oocytes were placed into a perfusion chamber and continually washed with recording solution containing (in mM) 90 NaCl, 1.0 KCl, 0.5 BaCl2, 0.005 EDTA, and 10 HEPES at pH 7.4 (23° C.). Voltage clamp recordings were conducted at a holding potential of −40 mV. All compounds were made as 20 mM stock solutions in DMSO and dissolved to reach the final concentration in recording solution. Final DMSO content was 0.05-0.5% (vol/vol). Some oocytes expressing GluN1/GluN2A were pretreated with […] BAPTA-AM for 10 minutes or injected with […] of 2 mM K-BAPTA to prevent gradual run-up of the current response.

[2] = target: T2, recombinant rat GluN1/GluN2B (Rattus norvegicus, UniProt P35439+Q00960); test: Two-electrode voltage-clamp (TEVC) recordings in Xenopus laevis oocytes, GluN1/GluN2B; details: for Emax: percentage of the initial glutamate (100 μM) and glycine (30 μM) current, read-out: EC50 (max.) (μM %) GluN2B: fitted maximum response
T2 construct: expressed in transfected cells; host or cells: Xenopus laevis oocytes (Ecocyte) injected with in vitro transcribed cRNA
Protocol: as §1, §2

[3] = target: T3, recombinant rat GluN1/GluN2D (Rattus norvegicus, UniProt P35439+Q62645); test: Two-electrode voltage-clamp (TEVC) recordings in Xenopus laevis oocytes, GluN1/GluN2D
T3 construct: expressed in transfected cells; host or cells: Xenopus laevis oocytes (Ecocyte) injected with in vitro transcribed cRNA
Protocol: as §1, §2

[4] = target: T4, recombinant rat GluN1/GluN2C (Rattus norvegicus, UniProt Q00961); test: Two-electrode voltage-clamp (TEVC) recordings in Xenopus laevis oocytes, GluN1/GluN2C; details: for I10 μM/Icontrol (mean ± SEM, %) GluN2C: 10 μM compound, Table 3; for I30 μM/Icontrol (mean ± SEM, %) GluN2C: 30 μM compound, Tables 5-7
T4 construct: expressed in transfected cells; host or cells: Xenopus laevis oocytes (Ecocyte) injected with in vitro transcribed cRNA
Protocol: as §1, §2

[5] = target: T5, recombinant rat GluN1/GluN2B (Rattus norvegicus, UniProt Q00960); test: Two-electrode voltage-clamp (TEVC) recordings in Xenopus laevis oocytes, GluN1/GluN2B; details: for I10 μM/Icontrol (mean ± SEM, %) GluN2B: 10 μM compound, Table 3; for I30 μM/Icontrol (mean ± SEM, %) GluN2B: 30 μM compound, Tables 5-7
T5 construct: expressed in transfected cells; host or cells: Xenopus laevis oocytes (Ecocyte) injected with in vitro transcribed cRNA
Protocol: as §1, §2

[6] = target: T6, recombinant rat GluN1/GluN2D (Rattus norvegicus, UniProt Q62645); test: Two-electrode voltage-clamp (TEVC) recordings in Xenopus laevis oocytes, GluN1/GluN2D; details: for I10 μM/Icontrol (mean ± SEM, %) GluN2D: 10 μM compound, Table 3; for I30 μM/Icontrol (mean ± SEM, %) GluN2D: 30 μM compound, Tables 5-7
T6 construct: expressed in transfected cells; host or cells: Xenopus laevis oocytes (Ecocyte) injected with in vitro transcribed cRNA
Protocol: as §1, §2

[7] = percentage of the initial glutamate (100 μM) and glycine (30 μM) current, read-out: EC50 (max.) (μM %) GluN2C: fitted maximum response
[8] = fitted when potentiation at 30 μM exceeded 120%, Tables 3, 5-7, read-out: EC50 (max.) (μM %) GluN2B: fitted EC50
[9] = fitted when potentiation at 30 μM exceeded 120%, Tables 3, 5-7, read-out: EC50 (max.) (μM %) GluN2D: fitted EC50
[10] = percentage of the initial glutamate (100 μM) and glycine (30 μM) current, read-out: EC50 (max.) (μM %) GluN2D: fitted maximum response
[11] = fitted when potentiation at 30 μM exceeded 120%, Tables 3, 5-7, read-out: EC50 (max.) (μM %) GluN2C: fitted EC50
[12] = read-out: EC50 & Max Effect: 2C Max (%)
[13] = read-out: EC50 & Max Effect: 2D Max (%)
[14] = Tables 11-13, read-out: EC50 & Max Effect: 2C Max (%)
[15] = Tables 11-13, read-out: EC50 & Max Effect: 2D Max (%)
[16] = Tables 11-13, read-out: EC50 & Max Effect: 2C
[17] = Tables 11-13, read-out: EC50 & Max Effect: 2D

T2 sequence (Q00960 27-1482, other chains not shown): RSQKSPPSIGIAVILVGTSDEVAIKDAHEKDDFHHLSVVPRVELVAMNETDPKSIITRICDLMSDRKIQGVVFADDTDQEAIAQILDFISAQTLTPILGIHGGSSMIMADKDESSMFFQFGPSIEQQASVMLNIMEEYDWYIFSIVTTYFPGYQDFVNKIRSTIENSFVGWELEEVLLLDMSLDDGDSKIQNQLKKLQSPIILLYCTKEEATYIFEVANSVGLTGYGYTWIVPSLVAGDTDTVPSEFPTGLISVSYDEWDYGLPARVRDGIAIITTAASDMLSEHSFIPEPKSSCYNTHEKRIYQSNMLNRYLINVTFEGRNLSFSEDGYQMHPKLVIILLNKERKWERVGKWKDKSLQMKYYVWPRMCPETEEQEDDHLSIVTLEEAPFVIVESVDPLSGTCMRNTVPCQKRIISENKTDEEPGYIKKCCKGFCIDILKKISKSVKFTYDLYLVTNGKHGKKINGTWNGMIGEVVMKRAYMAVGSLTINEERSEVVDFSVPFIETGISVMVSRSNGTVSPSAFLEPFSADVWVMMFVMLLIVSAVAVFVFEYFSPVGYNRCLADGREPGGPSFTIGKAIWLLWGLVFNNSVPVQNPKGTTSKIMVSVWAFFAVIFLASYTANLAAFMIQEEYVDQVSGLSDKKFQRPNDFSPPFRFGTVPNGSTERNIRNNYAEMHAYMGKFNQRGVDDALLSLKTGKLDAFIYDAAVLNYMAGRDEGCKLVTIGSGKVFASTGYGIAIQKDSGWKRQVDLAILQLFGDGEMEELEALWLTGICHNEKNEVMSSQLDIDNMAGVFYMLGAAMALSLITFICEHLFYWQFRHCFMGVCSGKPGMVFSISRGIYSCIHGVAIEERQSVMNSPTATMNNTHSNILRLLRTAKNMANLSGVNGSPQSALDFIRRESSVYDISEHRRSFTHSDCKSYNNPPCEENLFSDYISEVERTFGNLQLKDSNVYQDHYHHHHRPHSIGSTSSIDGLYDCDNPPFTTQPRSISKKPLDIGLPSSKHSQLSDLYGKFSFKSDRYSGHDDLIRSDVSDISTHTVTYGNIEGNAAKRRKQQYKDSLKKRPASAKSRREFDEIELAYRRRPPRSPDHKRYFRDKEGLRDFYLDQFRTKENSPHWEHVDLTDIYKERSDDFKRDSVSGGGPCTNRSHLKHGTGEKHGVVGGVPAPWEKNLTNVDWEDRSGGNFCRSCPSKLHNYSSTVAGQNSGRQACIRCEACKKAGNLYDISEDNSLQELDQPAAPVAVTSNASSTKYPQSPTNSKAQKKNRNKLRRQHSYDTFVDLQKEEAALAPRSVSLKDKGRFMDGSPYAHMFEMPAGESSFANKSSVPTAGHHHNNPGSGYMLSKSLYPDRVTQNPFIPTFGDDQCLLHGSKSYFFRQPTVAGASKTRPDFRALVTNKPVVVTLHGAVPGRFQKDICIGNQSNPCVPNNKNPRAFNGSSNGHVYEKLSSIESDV
T5 sequence (Q00960 27-1482, other chains not shown): as above
T6 sequence (Q62645 28-1323, other chains not shown): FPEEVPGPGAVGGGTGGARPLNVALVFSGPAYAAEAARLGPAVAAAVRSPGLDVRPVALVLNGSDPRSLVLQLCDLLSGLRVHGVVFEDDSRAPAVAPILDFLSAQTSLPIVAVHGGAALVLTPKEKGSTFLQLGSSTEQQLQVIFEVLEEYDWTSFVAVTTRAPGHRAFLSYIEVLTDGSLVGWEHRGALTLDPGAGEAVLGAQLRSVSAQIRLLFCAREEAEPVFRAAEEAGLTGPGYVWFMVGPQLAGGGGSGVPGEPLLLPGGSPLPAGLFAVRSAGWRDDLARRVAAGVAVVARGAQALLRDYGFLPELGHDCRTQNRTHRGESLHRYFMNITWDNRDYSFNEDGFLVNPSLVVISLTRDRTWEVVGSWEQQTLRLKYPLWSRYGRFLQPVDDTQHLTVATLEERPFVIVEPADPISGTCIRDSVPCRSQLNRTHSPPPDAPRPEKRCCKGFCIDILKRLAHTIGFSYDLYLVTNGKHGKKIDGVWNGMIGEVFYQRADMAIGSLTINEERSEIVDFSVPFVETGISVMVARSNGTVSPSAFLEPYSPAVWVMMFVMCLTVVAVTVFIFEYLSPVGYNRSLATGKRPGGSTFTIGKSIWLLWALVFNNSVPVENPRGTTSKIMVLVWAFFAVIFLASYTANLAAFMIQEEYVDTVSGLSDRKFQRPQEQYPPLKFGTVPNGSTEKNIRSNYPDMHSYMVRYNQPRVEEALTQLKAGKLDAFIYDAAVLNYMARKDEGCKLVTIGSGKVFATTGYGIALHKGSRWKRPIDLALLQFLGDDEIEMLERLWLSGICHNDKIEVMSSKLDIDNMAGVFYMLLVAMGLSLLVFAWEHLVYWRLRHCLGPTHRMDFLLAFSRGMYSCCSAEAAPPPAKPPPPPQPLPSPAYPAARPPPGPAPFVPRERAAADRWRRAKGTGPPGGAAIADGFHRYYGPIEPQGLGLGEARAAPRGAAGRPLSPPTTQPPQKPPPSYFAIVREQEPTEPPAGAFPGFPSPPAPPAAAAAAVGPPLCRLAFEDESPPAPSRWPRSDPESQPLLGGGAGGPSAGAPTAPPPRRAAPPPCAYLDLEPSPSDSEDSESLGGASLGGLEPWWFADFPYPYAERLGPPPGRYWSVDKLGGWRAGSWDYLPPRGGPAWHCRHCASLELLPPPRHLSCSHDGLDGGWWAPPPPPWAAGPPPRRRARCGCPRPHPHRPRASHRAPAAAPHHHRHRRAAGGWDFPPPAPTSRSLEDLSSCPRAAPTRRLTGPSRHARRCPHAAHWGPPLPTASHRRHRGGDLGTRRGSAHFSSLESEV
T3 sequence (Q62645 28-1323, other chains not shown): as above

With `CC(C)Oc1ccc(OCC2c3ccc(OC(C)C)cc3CCN2C(=S)c2cccc(Cl)c2)cc1` (stereo not shown) [1180-265] the EC50 ([1]; untitled tables after drawing 25 and drawing 36, read-out: EC50 (μM) GluN2C) was 0.3 µM, the EC50 ([2]; untitled tables after drawing 25 and drawing 36, read-out: EC50 (μM) GluN2B) was 0.6 µM and the EC50 ([3]; untitled tables after drawing 25 and drawing 36, read-out: EC50 (μM) GluN2D) was 0.4 µM.
`COc1ccc(OC[C@H]2c3ccc(OC(C)C)cc3CCN2C(=O)c2cccc(Cl)c2)cc1` [(R)-(+)-1180-55] was tested, and the “I10 μM/Icontrol (mean ± SEM, %) GluN2C” value [4] was 323%, the Emax [1, 7] was 342% and the EC50 [2, 8] was 5 µM. For the same compound, the Emax [2] was 167%, the “I10 μM/Icontrol (mean ± SEM, %) GluN2B” value [5] was 150% and the “I10 μM/Icontrol (mean ± SEM, %) GluN2D” value [6] was 345%. The EC50 [3, 9] was 1.3 µM and the Emax [3, 10] was 384%.
For `COc1ccc(OC[C@H]2c3ccc(OC(C)C)cc3CCN2C(=S)c2cccc(Cl)c2)cc1` [(R)-(+)-1180-163], the “I10 μM/Icontrol (mean ± SEM, %) GluN2C” value [4] was 252%, the Emax [1, 7] was 252% and the “I10 μM/Icontrol (mean ± SEM, %) GluN2B” value [5] was 121%. For the same compound, the “I10 μM/Icontrol (mean ± SEM, %) GluN2D” value [6] was 215%, the EC50 [3, 9] was 2.3 µM and the Emax [3, 10] was 255%.
In the case of `CCOc1ccc(OC[C@H]2c3ccc(OC(C)C)cc3CCN2C(=S)c2cccc(C(F)(F)F)c2)cc1` [(R)-(+)-1180-168], the “I30 μM/Icontrol (mean ± SEM, %) GluN2C” value [4] is reported as 146%, the EC50 [1, 11] is reported as 0.24 µM and the Emax [1, 7] is reported as 182%. The EC50 [2, 8] was 0.21 µM, the Emax [2] was 173% and the “I30 μM/Icontrol (mean ± SEM, %) GluN2B” value [5] was 156%. For the same compound, the “I30 μM/Icontrol (mean ± SEM, %) GluN2D” value [6] was 157%, the EC50 [3, 9] was 0.3 µM and the Emax [3, 10] was 160%.
`COc1ccc(OC[C@@H]2c3ccc(OC(C)C)cc3CCN2C(=O)c2cccc(Cl)c2)cc1` [(S)-(−)-1180-55] was tested, and the “I10 μM/Icontrol (mean ± SEM, %) GluN2C” value [4] was 361%, the Emax [1, 7] was 360% and the EC50 [2, 8] was 5.2 µM. For the same compound, the Emax [2] was 307%, the “I10 μM/Icontrol (mean ± SEM, %) GluN2B” value [5] was 269% and the “I10 μM/Icontrol (mean ± SEM, %) GluN2D” value [6] was 336%. It also gave an EC50 [3, 9] of 4.5 µM and an Emax [3, 10] of 350%.
For `CCOc1ccc(OC[C@@H]2c3ccc(OC(C)C)cc3CCN2C(=O)c2cccc(F)c2)cc1` [(S)-(−)-1180-87], the “I30 μM/Icontrol (mean ± SEM, %) GluN2C” value [4] was 131%, the EC50 [1, 11] was 7.6 µM and the Emax [1, 7] was 132%. For the same compound, the EC50 [2, 8] was 6.7 µM, the Emax [2] was 206% and the “I30 μM/Icontrol (mean ± SEM, %) GluN2B” value [5] was 195%. The “I30 μM/Icontrol (mean ± SEM, %) GluN2D” value [6] was 119%.
For `CCOc1ccc(OC[C@@H]2c3ccc(OC(C)C)cc3CCN2C(=O)c2cccc(C(F)(F)F)c2)cc1` [(S)-(−)-1180-92], the “I30 μM/Icontrol (mean ± SEM, %) GluN2C” value [4] was 132%, the EC50 [1, 11] was 1.2 µM and the Emax [1, 7] was 141%. The EC50 [2, 8] was 1.9 µM, the Emax [2] was 210% and the “I30 μM/Icontrol (mean ± SEM, %) GluN2B” value [5] was 207%. For the same compound, the “I30 μM/Icontrol (mean ± SEM, %) GluN2D” value [6] was 116%.
With `CCOc1ccc(OC[C@@H]2c3ccc(OC(C)C)cc3CCN2C(=S)c2cccc(F)c2)cc1` [(S)-(−)-1180-154] the “I30 μM/Icontrol (mean ± SEM, %) GluN2C” value [4] was 153%, the EC50 [1, 11] was 0.46 µM and the Emax [1, 7] was 163%. The EC50 [2, 8] was under 0.5 µM, the Emax [2] was 213% and the “I30 μM/Icontrol (mean ± SEM, %) GluN2B” value [5] was 206%. The “I30 μM/Icontrol (mean ± SEM, %) GluN2D” value [6] was 185%, the EC50 [3, 9] was 0.47 µM and the Emax [3, 10] was 190%.
`COc1ccc(OC[C@@H]2c3cc(OC)c(OC)cc3CCN2C(=O)c2cccc(Cl)c2)cc1` [S-1390] was tested, and the EC50 ([1]; EC50 & Max Effect: 2C (μM)) was 6.1 µM, the Emax [1, 12] was 275% and the Emax [3, 13] was 299%.
With `COc1ccc(OCC2c3cc(C)c(C)cc3CCN2C(=O)c2cccc(Br)c2)cc1` (stereo not shown) [drawing 33 R1=Br R2=H R3=H R4=Me R5=Me] the Emax [1, 14] was 197% and the Emax [3, 15] was 211%.
Compound `COc1ccc(OCC2c3ccc(N(C)C)cc3CCN2C(=O)c2cccc(Br)c2)cc1` (stereo not shown) [drawing 33 R1=Br R2=H R3=H R4=NMe2 R5=H] has an Emax [1, 14] of 293% and an Emax [3, 15] of 327%.
In the case of `COc1ccc(OCC2c3ccc(OCc4ccccc4)cc3CCN2C(=O)c2cccc(Br)c2)cc1` (stereo not shown) [drawing 33 R1=Br R2=H R3=H R4=OBn R5=H], the EC50 ([1]; EC50 & Max Effect: 2C (μM)) is reported as 0.31 µM, the Emax [1, 12] is reported as 257% and the EC50 ([3]; EC50 & Max Effect: 2D (μM)) is reported as 0.27 µM. It also gave an Emax [3, 13] of 219%.
`COc1ccc(OCC2c3ccc(SCc4ccccc4)cc3CCN2C(=O)c2cccc(Cl)c2)cc1` (stereo not shown) [drawing 33 R1=Cl R2=H R3=H R4=SBn R5=H] showed an EC50 [1, 16] of 0.4 µM, an Emax [1, 14] of 226% and an EC50 [3, 17] of 0.43 µM. It also gave an Emax [3, 15] of 213%.
`COc1ccc(OCC2c3cc(OC)c(OC)cc3CCN2C(=O)c2ccccc2)cc1` (stereo not shown) [drawing 33 R1=H R2=H R3=H R4=OMe R5=OMe] showed an EC50 [1, 16] of 12.3 µM, an Emax [1, 14] of 450% and an EC50 [3, 17] of 11.4 µM. The Emax [3, 15] was 156%.
